# According to patent US10881110B2, “Herbicidal compositions comprising isoxazolo[5,4-b]pyridines” (BASF SE, priority 2014, dated 2021):
# Experiments:
# Assay in all cases: greenhouse post-emergence herbicidal test
# POLPE = assay type: in vivo, Persicaria maculosa; set-up: key: scale 0 to 100; conditions: application rate a.i.: I.1 31.25 g/ha, B.139 (pyroxasulfone) 12.5 g/ha, alone or as mixture (composition 1.139)
# Protocol: (§1) The culture containers used were plastic pots containing medium loamy sand with approximately 4.6% of humus and 69.9% sand as substrate. The seeds of the test plants were sown separately for each species.
# (§2) For the post-emergence treatment, the test plants were grown to a plant height of from 1 to 15 cm, depending on the plant habit, and only then treated with the active compounds which had been suspended or emulsified in water. To this end, the test plants were either sown directly, and grown in the same containers, or they were first grown separately as seedlings and transplanted into the test containers a few days prior to treatment.
# (§3) Depending on the species, the plants were kept at 10-25° C. and 20-35° C., respectively.
# (§4) The test period extended over 1 to 3 weeks. During this time, the plants were tended and their response to the individual treatments was evaluated 20 days after treatment except mentioned otherwise.
# (§5) Evaluation was carried out using a scale from 0 to 100. 100 means no emergence of the plants, or complete destruction of at least the above-ground parts, and 0 means no damage or normal course of growth.
# (§6) The respective stated components A and B, and, if appropriate, C, were formulated as a 10% by weight strength emulsion concentrate and, with addition of the amount of solvent system, introduced into the spray liquor used for applying the active compound. In the examples, the solvent used was water.
# (§7) In the examples below, using the method of S. R. Colby (1967) “Calculating synergistic and antagonistic responses of herbicide combinations”, Weeds 15, p. 22 ff., the value E, which is expected if the activity of the individual active compounds is only additive, was calculated. E=X+Y−(X·Y/100)
# LAMAM = assay type: in vivo, Lamium amplexicaule; set-up: key: scale 0 to 100; conditions: application rate a.i.: I.1 31.25 g/ha, B.139 (pyroxasulfone) 25 g/ha, alone or as mixture (composition 1.139)
# Protocol: as §1, §2, §3, §4, §5, §6, §7
# GERPU = assay type: in vivo, Geranium pusillum; conditions: application rate a.i.: I.1 31.25 g/ha, alone or as mixture (composition 1.139)
# Protocol: as §1, §2, §3, §4, §5, §6, §7
# POLCO = assay type: in vivo, Polygonum convolvulus; set-up: key to herbicidal activity against POLCO found: rating on a scale from 0 to 100; conditions: post emergence
# In short: (§8)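 Herbicidal activity scored on a 0 (no damage) to 100 (plants destroyed) scale, usually 20 days after water-based spraying of 1–15 cm plants grown in loamy sand at 10-25 °C or 20-35 °C depending on species. Components were applied from 10% emulsion concentrates; Colby's E=X+Y−(X·Y/100) gives the additive expectation.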
# AMBEL = assay type: in vivo, Ambrosia artemisiifolia; set-up: key: rating on a scale from 0 to 100
# In short: (§9)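 Post-emergence greenhouse test: plants in loamy sand, sprayed at 1–15 cm height with aqueous spray liquor from 10% emulsion concentrates, kept at 10-25 °C or 20-35 °C by species. Damage scored 0–100 (100 = complete destruction), usually 20 days after treatment. Expected additive effect E from Colby: E=X+Y−(X·Y/100).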
# SEBEX = assay type: in vivo, Sesbania exaltata; conditions: application rate a.i.: I.1 31.25 g/ha, B.139 (pyroxasulfone) 25 g/ha, alone or as mixture (composition 1.139)
# Protocol: as §1, §2, §3, §4, §5, §6, §7
# CONAR = assay type: in vivo, Convolvulus arvensis; set-up: key: rating on a scale from 0 to 100
# In short: as §9
# ABUTH = assay type: in vivo, Abutilon theophrast; set-up: key to herbicidal activity against ABUTH found: rating on a scale from 0 to 100; conditions: post emergence
# In short: as §9
# AMARE = assay type: in vivo, Amaranthus retroflexus; conditions: a.i. g/ha: I.1 20.8, B.192 62.5, 20 days after treatment
# Protocol: as §1, §2, §3, §4, §5, §6, §7
# CHEAL = assay type: in vivo, Chenopodium album; conditions: a.i. g/ha: I.1 20.8, B.192 62.5, 20 days after treatment
# Protocol: as §1, §2, §3, §4, §5, §6, §7
# MATCH = assay type: in vivo, Matricaria recutita; conditions: post emergence
# In short: as §9
# SETVI = assay type: in vivo, Setaria viridis; conditions: a.i. g/ha: I.1 20.8, B.192 62.5, 20 days after treatment
# Protocol: as §1, §2, §3, §4
# Evaluation was carried out using a scale from 0 to 100. […]
# In the examples below, using the method of S. R. Colby (1967) “Calculating synergistic and antagonistic responses of herbicide combinations”, Weeds 15, p. 22 ff., the value E, which is expected if the activity of the individual active compounds is only additive, was calculated. […]
# SASKR = assay type: in vivo, Salsola kali; conditions: 6 days after treatment
# Protocol: as §1, §2, §3, §4, §5, §6, §7
# VIOAR = assay type: in vivo, Viola arvensis; conditions: post emergence, 6 days after treatment
# In short: as §8
# ERICA = assay type: in vivo, Conyza canadensis; conditions: post emergence; 6 days after treatment; g/ha a.i.: I.1 125; naptalam 50; mixture 125+50
# In short: as §9
# POLAV = assay type: in vivo, Polygonum aviculare; conditions: 6 days after treatment
# Protocol: as §1, §2, §3, §4, §5, §6, §7
# KCHSC = assay type: in vivo, Kochia scoparia; conditions: post emergence, 6 days after treatment, g/ha a.i.: I.1 31.25
# In short: as §8
# SORVU = assay type: in vivo; conditions: 6 days after treatment, g/ha a.i.: I.1 62.5, naptalam 200, mixture 62.5+200
# [1] = application rate a.i.: I.1 31.25 g/ha, B.139 (pyroxasulfone) 12.5 g/ha, alone or as mixture (composition 1.139)
# [2] = application rate a.i.: I.1 31.25 g/ha, B.139 (pyroxasulfone) 25 g/ha, alone or as mixture (composition 1.139)
# [3] = a.i. g/ha: I.1 20.8, B.192 62.5, 20 days after treatment
# [4] = g/ha a.i.: I.1 31.25, naptalam 200, mixture 31.25+200
# [5] = g/ha a.i.: I.1 62.5, naptalam 50, mixture 62.5+50
# [6] = g/ha a.i.: I.1 62.5, naptalam 200, mixture 62.5+200
# [7] = g/ha a.i.: I.1 62.5, naptalam 100, mixture 62.5+100
# [8] = 6 days after treatment, g/ha a.i.: I.1 31.25, naptalam 50, mixture 31.25+50
# [9] = 6 days after treatment, g/ha a.i.: I.1 31.25, naptalam 100, mixture 31.25+100
# [10] = 6 days after treatment, g/ha a.i.: I.1 62.5, naptalam 50, mixture 62.5+50
smiles,measurement,setting,value
"Cn1nc(C(F)(F)F)c(CS(=O)(=O)C2=NOC(C)(C)C2)c1OC(F)F [B.139, pyroxasulfone]",herbicidal activity against POLPE found,POLPE,55
same,"herbicidal activity against LAMAM, found",LAMAM,45
same,"herbicidal activity against GERPU, found",GERPU; B.139 (pyroxasulfone) 12.5 g/ha,0
same,"herbicidal activity against GERPU, found",GERPU; B.139 (pyroxasulfone) 25 g/ha,25
same,herbicidal activity against POLCO found,POLCO; [1],15
same,herbicidal activity against AMBEL found,AMBEL; [1],10
same,"herbicidal activity against SEBEX, found",SEBEX,35
same,herbicidal activity against CONAR found,CONAR; [1],60
same,herbicidal activity against CONAR found,CONAR; [2],60
same,herbicidal activity against ABUTH found,ABUTH; [2],60
"COC(=O)Nc1cccc(OC(=O)Nc2cccc(C)c2)c1 [B.192, phenmedipham]",herbicidal activity against AMARE found,AMARE,35%
same,herbicidal activity against CHEAL found,CHEAL,50%
same,herbicidal activity against MATCH found,MATCH; [3],50%
same,herbicidal activity against SETVI found,SETVI,65%
same,herbicidal activity against AMBEL found,AMBEL; [3],90%
O=C(O)c1ccccc1C(=O)Nc1cccc2ccccc12 [naptalam],herbicidal activity against SASKR found,SASKR; [4],80
same,herbicidal activity against SASKR found,SASKR; [5],70
same,herbicidal activity against SASKR found,SASKR; [6],80
same,herbicidal activity against VIOAR found,VIOAR; [4],70
same,herbicidal activity against VIOAR found,VIOAR; [7],65
same,herbicidal activity against VIOAR found,VIOAR; [6],70
same,herbicidal activity against MATCH found,MATCH; [8],30
same,herbicidal activity against MATCH found,MATCH; [9],65
same,herbicidal activity against MATCH found,MATCH; [10],30
same,herbicidal activity against ERICA found,ERICA,80
same,herbicidal activity against POLAV found,"POLAV; g/ha a.i.: I.1 31.25, naptalam 50, mixture 31.25+50",70
same,herbicidal activity against POLAV found,POLAV; [4],75
same,herbicidal activity against POLAV found,POLAV; [5],70
same,herbicidal activity against POLAV found,POLAV; [7],75
same,herbicidal activity against POLAV found,POLAV; [6],75
same,herbicidal activity against POLCO found,POLCO; [8],75
same,herbicidal activity against POLCO found,POLCO; [10],75
same,herbicidal activity against CONAR found,CONAR; [8],80
same,herbicidal activity against CONAR found,CONAR; [9],80
same,herbicidal activity against CONAR found,"CONAR; 6 days after treatment, g/ha a.i.: I.1 31.25, naptalam 200, mixture 31.25+200",80
same,herbicidal activity against CONAR found,"CONAR; 6 days after treatment, g/ha a.i.: I.1 125, naptalam 100, mixture 125+100",80
same,herbicidal activity against ABUTH found,ABUTH; [9],85
same,herbicidal activity against KCHSC found,"KCHSC; naptalam 100, mixture 31.25+100",85
same,herbicidal activity against KCHSC found,"KCHSC; naptalam 200, mixture 31.25+200",85
same,herbicidal activity against SORVU found,SORVU,50
